Here are results for 33 compounds from patent publication US11401286B2 (Tetra Discovery Partners, LLC, priority 2012, dated 2022).

The structures appear in SMILES notation. Structures can show the parent of a compound that is named as a salt.

The first assay concerns recombinant human PDE4. Conditions: reported value; read-out: IC50 with respect to inhibiting recombinant human PDE4; cited from earlier work.
For orientation: IC50 means the point on the concentration scale where inhibition reaches its midpoint. Turning to `COc1ccc(C2CNC(=O)C2)cc1OC1CCCC1` (stereo not drawn) [rolipram], the IC50 is roughly 0.2 µM.

The target of a further assay is PDE4D7 (Homo sapiens (Human), UniProt Q08499). To be noted: read-out: PDE4D7 IC50.
PDE4D7, sequence (Q08499 other isoform, or with tags, fused parts or gaps): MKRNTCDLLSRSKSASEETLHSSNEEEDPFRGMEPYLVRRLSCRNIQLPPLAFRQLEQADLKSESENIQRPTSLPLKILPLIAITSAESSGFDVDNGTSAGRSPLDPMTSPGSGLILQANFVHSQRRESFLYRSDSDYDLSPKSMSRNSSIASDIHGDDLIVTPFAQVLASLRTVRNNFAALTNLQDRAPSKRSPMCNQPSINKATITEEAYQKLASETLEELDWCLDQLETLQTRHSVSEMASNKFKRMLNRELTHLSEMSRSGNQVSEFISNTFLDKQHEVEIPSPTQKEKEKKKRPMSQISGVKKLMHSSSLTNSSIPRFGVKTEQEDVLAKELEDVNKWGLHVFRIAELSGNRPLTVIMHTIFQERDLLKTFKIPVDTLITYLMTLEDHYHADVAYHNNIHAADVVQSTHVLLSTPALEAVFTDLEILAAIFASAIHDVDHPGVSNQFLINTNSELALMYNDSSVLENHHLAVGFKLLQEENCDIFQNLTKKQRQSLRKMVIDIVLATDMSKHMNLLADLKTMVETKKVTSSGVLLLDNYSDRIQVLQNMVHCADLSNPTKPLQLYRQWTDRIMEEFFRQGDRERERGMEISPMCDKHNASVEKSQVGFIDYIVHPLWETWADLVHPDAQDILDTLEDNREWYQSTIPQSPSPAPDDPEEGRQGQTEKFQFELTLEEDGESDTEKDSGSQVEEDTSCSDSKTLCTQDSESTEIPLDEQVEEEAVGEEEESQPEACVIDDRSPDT
As to `CCc1nc(Nc2ccc(CO)cc2)nc(-c2cccc(Cl)c2)n1` [Example 80, (4-((4-(3-Chlorophenyl)-6-ethyl-1,3,5-triazin-2-yl)amino)phenyl)methanol], the IC50 is less than 1 µM.
On the same count and under the same terms, under `CCc1cc(Cc2ccc(CCO)cc2)nc(-c2cccc(Cl)c2)n1` [Example 67, 2-(4-((2-(3-Chlorophenyl)-6-ethylpyrimidin-4-yl)methyl)phenyl)ethanol] stands less than 1 µM; under `O=C(O)COc1ccc(Nc2cc(-c3cccc(Cl)c3)nc3c2CCC3)cc1` [Example 4, 2-[4-[[2-(3-Chlorophenyl)-6,7-dihydro-5H-cyclopenta[b]pyridin-4-yl]amino]phenoxy]acetic acid], greater than 1 µM; under `CN1CCN(c2cc(Nc3ccc(CC(N)=O)cc3)c3c(n2)CCC3)CC1` [Example 253, 2-(4-((2-(4-methylpiperazin-1-yl)-6,7-dihydro-5H-cyclopenta[b]pyridin-4-yl)amino)phenyl)acetamide hydrochloride], greater than 1 µM.
For the compound `COC(=O)Cc1ccc(Nc2cc(-c3cccc(Cl)c3)nc3c2CCC3)cn1` [Example 89, Methyl 2-(5-((2-(3-chlorophenyl)-6,7-dihydro-5H-cyclopenta[b]pyridin-4-yl)amino)pyridin-2-yl)acetate hydrochloride], the IC50 was greater than 1 µM.
Still for that read-out and setting: under `CN(C)CCc1ccc(Nc2cc(-c3cccc(Cl)c3)nc3c2CCC3)cc1` [Example 105, 2-(3-Chlorophenyl)-N-(4-(2-(dimethylamino)ethyl)phenyl)-6,7-dihydro-5H-cyclopenta[b]pyridin-4-amine hydrochloride] stands greater than 1 µM.

The same assay, now with this note: read-out: PDE4D7 IC50; PDE4D7 without asterisk.
With `Clc1ccc(-c2nc(Nc3ccc(Cc4nnn[nH]4)cc3)cc(C3CC3)n2)s1` [Example 298, 2-(5-Chloro-2-thienyl)-6-cyclopropyl-N-[4-(1H-tetrazol-5-ylmethyl)phenyl]pyrimidin-4-amine], the IC50 is greater than 1 µM.
Same read-out and setting: under `Cc1ccc(Cc2nc(-c3cccc(Cl)c3)nc3c2CCC3)cc1` [Example 69, 2-(3-Chlorophenyl)-4-(4-methylbenzyl)-6,7-dihydro-5H-cyclopenta[d]pyrimidine] stands greater than 1 µM.
`OCCCc1ccc(Nc2cc(-c3cccc(Cl)c3)nc(C(F)(F)F)c2)cc1` [Example 147, 3-(4-((2-(3-Chlorophenyl)-6-(trifluoromethyl)pyridin-4-yl)amino)phenyl)propan-1-ol]: the IC50 was less than 1 µM.
For `CCOC(=O)Cc1ccc(Nc2cc(CC)nc(-c3cccc(Cl)c3)n2)cc1` [Example 185, Ethyl 2-(4-((2-(3-chlorophenyl)-6-ethylpyrimidin-4-yl)amino)phenyl)acetate], the IC50 is greater than 1 µM.
Still for that read-out and setting: under `CCc1c(C)nc(-c2ccc(Cl)s2)nc1Nc1ccc(CS(C)(=O)=O)cc1` [Example 317, 2-(5-chloro-2-thienyl)-5-ethyl-6-methyl-N-[4-(methylsulfonylmethyl)phenyl]pyrimidin-4-amine] stands greater than 1 µM.
On the same count and under the same terms, for `NC(=O)Cc1ccc(Nc2nc(-c3ccc(Cl)s3)nc3c2CCC3)cc1` [Example 20, 2-[4-[[2-(5-chloro-2-thienyl)-6,7-dihydro-5H-cyclopenta[d]pyrimidin-4-yl]amino]phenyl]acetamide] the value was less than 1 µM; for `CNC(=O)Cc1ccc(Nc2cc(-c3cccc(Cl)c3)nc3c2CCC3)cc1` [Example 120, 2-(4-((2-(3-chlorophenyl)-6,7-dihydro-5H-cyclopenta[b]pyridin-4-yl)amino)phenyl)-N-methylacetamide hydrochloride], greater than 1 µM; for `NC(=O)Cc1ccc(Nc2cc(C3CC3)nc(-c3cccc(Cl)c3)n2)nc1` [Example 212, 2-(6-((2-(3-Chlorophenyl)-6-cyclopropylpyrimidin-4-yl)amino)pyridin-3-yl)acetamide], greater than 1 µM.
Same read-out and setting: for `NC(=O)Cc1ccc(Nc2cc(-c3ccc(F)c(Cl)c3)nc3c2CCC3)cc1` [Example 150, 2-(4-((2-(3-Chloro-4-fluorophenyl)-6,7-dihydro-5H-cyclopenta[b]pyridin-4-yl)amino)phenyl)acetamide hydrochloride] the value was greater than 1 µM; for `OCCCc1ccc(Nc2cc(-c3cccc(Cl)c3)nc3c2CCC3)cc1` [Example 85, 3-(4-((2-(3-Chlorophenyl)-6,7-dihydro-5H-cyclopenta[b]pyridin-4-yl)amino)phenyl)propan-1-ol hydrochloride], less than 1 µM; for `NC(=O)Cc1cccc(Nc2cc(-c3cccc(Cl)c3)nc3c2CCC3)c1` [Example 101, 2-(3-((2-(3-Chlorophenyl)-6,7-dihydro-5H-cyclopenta[b]pyridin-4-yl)amino)phenyl)acetamide hydrochloride], greater than 1 µM.
In the case of `Cc1cc(Nc2cc(-c3cccc(Cl)c3)nc3c2CCC3)ccc1CC(N)=O` [Example 111, 2-(4-((2-(3-Chlorophenyl)-6,7-dihydro-5H-cyclopenta[b]pyridin-4-yl)amino)-2-methylphenyl)acetamide hydrochloride], the IC50 is greater than 1 µM.
The same measure, in the same setting: under `O=C(O)c1ccc(Nc2cc(-c3cccc(Cl)c3)nc3c2CCC3)cc1` [Example 5, 4-[[2-(3-Chlorophenyl)-6,7-dihydro-5H-cyclopenta[b]pyridin-4-yl]amino]benzoic acid] stands greater than 1 µM; under `FC(F)(F)c1cc(Cc2ccc(Cn3cc(Cl)cn3)cc2)nc(-c2cccc(Cl)c2)n1` [Example 218, 4-(4-((4-Chloro-1H-pyrazol-1-yl)methyl)benzyl)-2-(3-chlorophenyl)-6-(trifluoromethyl)pyrimidine], greater than 1 µM; under `OCCc1ccc(Nc2cc(-c3cccc(Cl)c3)nc(C(F)(F)F)c2)cc1` [Example 146, 2-(4-((2-(3-Chlorophenyl)-6-(trifluoromethyl)pyridin-4-yl)amino)phenyl)ethanol], less than 1 µM.
As for `CCc1cc(Cc2ccc(CC(=O)O)cc2)nc(-c2cccc(Cl)c2)n1` [Example 66, 2-(4-((2-(3-chlorophenyl)-6-ethylpyrimidin-4-yl)methyl)phenyl)acetic acid], the IC50 is greater than 1 µM.
The same measure, in the same setting: under `OCCc1ccc(Nc2cc(C3CCCCC3)nc3c2CCC3)cc1` [Example 251, 2-(4-((2-cyclohexyl-6,7-dihydro-5H-cyclopenta[b]pyridin-4-yl)amino)phenyl)ethanol hydrochloride] stands greater than 1 µM.
On the same count and under the same terms, under `OCCc1ccc(Nc2cc(C(F)(F)F)nc(C3CCCC3)n2)cc1` [Example 227, 2-(4-((2-Cyclopentyl-6-(trifluoromethyl)pyrimidin-4-yl)amino)phenyl)ethanol] stands less than 1 µM.
`O=C(O)Cc1ccc(Nc2nc(-c3cccc(Cl)c3)nc3c2S(=O)(=O)CCC3)cc1` [Example 275, 2-(4-((2-(3-chlorophenyl)-5,5-dioxido-7,8-dihydro-6H-thiopyrano[3,2-d]pyrimidin-4-yl)amino)phenyl)acetic acid]: the IC50 is less than 1 µM.
On the same count and under the same terms, under `CCCN(C)C(=O)Cc1ccc(Cc2cc(CC)nc(-c3cccc(Cl)c3)n2)cc1` [Example 194, 2-(4-((2-(3-Chlorophenyl)-6-ethylpyrimidin-4-yl)methyl)phenyl)-N-methyl-N-propylacetamide] stands less than 1 µM; under `CCc1cc(Cc2ccc(CC(N)=O)cc2)nc(-c2cccc(Cl)c2)n1` [Example 65, 2-(4-((2-(3-Chlorophenyl)-6-ethylpyrimidin-4-yl)methyl)phenyl)acetamide], less than 1 µM.
Same read-out and setting: under `CCc1c(C)nc(-c2ccc(Cl)s2)nc1Nc1ccc2c(c1)CS(=O)(=O)C2` [Example 312, 2-(5-Chloro-2-thienyl)-N-(2,2-dioxo-1,3-dihydro-2-benzothiophen-5-yl)-5-ethyl-6-methyl-pyrimidin-4-amine] stands greater than 1 µM; under `CCCc1nc(Nc2ccc(C(=O)O)cc2)nc(-c2ccc(Cl)s2)n1` [Example 33, 4-((4-(5-chlorothiophen-2-yl)-6-propyl-1,3,5-triazin-2-yl)amino)benzoic acid], greater than 1 µM; under `CCCNC(=O)Cc1ccc(Nc2nc(-c3ccccc3)nc3c2S(=O)(=O)CCC3)cc1` [Example 270, 2-(4-((5,5-dioxido-2-phenyl-7,8-dihydro-6H-thiopyrano[3,2-d]pyrimidin-4-yl)amino)phenyl)-N-propylacetamide], less than 1 µM.
Same read-out and setting: under `NC(=O)Cc1ccc(Nc2cc(-c3cccc(Cl)c3)nc(C(F)(F)F)c2)cc1` [Example 145, 2-(4-((2-(3-Chlorophenyl)-6-(trifluoromethyl)pyridin-4-yl)amino)phenyl)acetamide] stands less than 1 µM; under `NC(=O)Cc1ccc(Cc2cc(OC3CCCC3)nc3c2CCC3)cc1` [Example 131, 2-(4-((2-(Cyclopentyloxy)-6,7-dihydro-5H-cyclopenta[b]pyridin-4-yl)methyl)phenyl)acetamide hydrochloride], greater than 1 µM.
